These are literature values, as cited in patent US20250231185A1, “Coronavirus T Cell Epitopes, Megapools and Uses Thereof” (La Jolla Institute for Immunology, priority 2021, published 2025).

One data set concerns CD8+ T cells. Particulars: SARS-CoV-2-derived CD8 epitopes; dominant = recognized by 3 or more donors/different studies; cited from earlier work.
Turning to 662 (TTDPSFLGRYM) [compound 662], the Dominant entry is reported as “Yes (more dominant epitopes are defined by being recognized by 3 or more donors/different studies)”.

Consider 670 (YLATALLTL) [compound 670], for which the Dominant result is “Yes (more dominant epitopes are defined by being recognized by 3 or more donors/different studies)”. For the substance 678 (SAPPAQYEL) [compound 678], the Dominant entry is on record as “Yes (more dominant epitopes are defined by being recognized by 3 or more donors/different studies)”. 683 (ITDVFYKENSY) [compound 683]: the Dominant entry is “Yes (more dominant epitopes are defined by being recognized by 3 or more donors/different studies)”. Regarding 687 (CTEIDPKLDNY) [compound 687], the Dominant entry is given as “Yes (more dominant epitopes are defined by being recognized by 3 or more donors/different studies)”. Regarding 696 (FADDLNQLTGY) [compound 696], the Dominant result is “Yes (more dominant epitopes are defined by being recognized by 3 or more donors/different studies)”.

The same data set, now with this note: T cell subset (CD4 or CD8) recognizing the SARS-CoV-2-derived epitope; cited from earlier work.
Turning to 662 (TTDPSFLGRYM) [compound 662], the Restriction result was “CD8”. On to 663 (FLGRYMSAL) [compound 663], for which the Restriction result is “CD8”. With 664 (YMSALNHTK) [compound 664], the Restriction result is on record as “CD8”.

On to 665 (MSALNHTKK) [compound 665], for which the Restriction result is reported as “CD8”. As for 666 (MSALNHTKKW) [compound 666], the Restriction result was “CD8”. On to 667 (SALNHTKKW) [compound 667], for which the Restriction entry is on record as “CD8”. Turning to 668 (WKYPQVNGL) [compound 668], the Restriction entry is “CD8”. Consider 669 (YPQVNGLTSI) [compound 669], for which the Restriction entry is recorded as “CD8”.

Consider 670 (YLATALLTL) [compound 670], for which the Restriction entry is “CD8”. As to 672 (ARAGEAANF) [compound 672], the Restriction entry is reported as “CD8”.

Regarding 673 (GEAANFCAL) [compound 673], the Restriction result is reported as “CD8”.

In the case of 675 (LGDVRETMSY) [compound 675], the Restriction result is recorded as “CD8”. Turning to 676 (VRETMSYLF) [compound 676], the Restriction result is “CD8”.

Regarding 677 (VMYMGTLSY) [compound 677], the Restriction result is recorded as “CD8”. With 678 (SAPPAQYEL) [compound 678], the Restriction result is given as “CD8”. As to 679 (FTCASEYTGNY) [compound 679], the Restriction result is on record as “CD8”. Consider 681 (YTGNYQCGHY) [compound 681], for which the Restriction entry is reported as “CD8”. For the substance 683 (ITDVFYKENSY) [compound 683], the Restriction entry is “CD8”. As to 684 (DVFYKENSY) [compound 684], the Restriction entry is “CD8”. In the case of 686 (YTTTIKPVTY) [compound 686], the Restriction entry is given as “CD8”. Regarding 687 (CTEIDPKLDNY) [compound 687], the Restriction entry is “CD8”.

On to 688 (TEIDPKLDNYY) [compound 688], for which the Restriction result is recorded as “CD8”.

Regarding 689 (EIDPKLDNY) [compound 689], the Restriction entry was “CD8”. On to 690 (NYYKKDNSY) [compound 690], for which the Restriction result is listed as “CD8”.

For the substance 691 (YYKKDNSY) [compound 691], the Restriction entry is given as “CD8”. Consider 692 (YYKKDNSYF) [compound 692], for which the Restriction result was “CD8”. Consider 694 (ASFDNFKFV) [compound 694], for which the Restriction entry is on record as “CD8”. Regarding 695 (KFADDLNQL) [compound 695], the Restriction result was “CD8”. For the substance 696 (FADDLNQLTGY) [compound 696], the Restriction entry is reported as “CD8”. With 697 (ASRELKVTF) [compound 697], the Restriction result was “CD8”.

As for 698 (DVVAIDYKHY) [compound 698], the Restriction result is on record as “CD8”.

Consider 699 (VVAIDYKHY) [compound 699], for which the Restriction result is “CD8”.

The same data set, now with this note: T cell type (CD4 or CD8) recognizing the SARS-CoV-2 epitope; cited from earlier work.
Consider 900 (TYKNTCDGTTF) [compound 900], for which the Restriction entry was “CD8”.

Turning to 902 (TFTYASALW) [compound 902], the Restriction entry was “CD8”. On to 907 (SEISMDNSPNL) [compound 907], for which the Restriction entry is on record as “CD8”.

In the case of 908 (AWPLIVTAL) [compound 908], the Restriction entry is listed as “CD8”. 912 (SDGTGTIY) [compound 912]: the Restriction entry is recorded as “CD8”.

In the case of 915 (GPKVKYLYF) [compound 915], the Restriction entry is given as “CD8”. As for 916 (YLYFIKGLNNL) [compound 916], the Restriction result is reported as “CD8”.

In the case of 917 (YFIKGLNNL) [compound 917], the Restriction result was “CD8”. Consider 918 (VPANSTVL) [compound 918], for which the Restriction result was “CD8”. For 919 (VPANSTVLSF) [compound 919], the Restriction result is given as “CD8”. Regarding 921 (YLASGGQPI) [compound 921], the Restriction result is recorded as “CD8”. For 923 (VVYRAFDIY) [compound 923], the Restriction result is “CD8”. With 924 (FDIYNDKVAGF) [compound 924], the Restriction result was “CD8”.

On to 925 (KVAGFAKFL) [compound 925], for which the Restriction entry is “CD8”. Regarding 926 (KVAGFAKFLK) [compound 926], the Restriction entry is recorded as “CD8”. For 927 (NLIDSYFVV) [compound 927], the Restriction entry is reported as “CD8”. For the substance 928 (YFVVKRHTF) [compound 928], the Restriction entry is given as “CD8”. As to 929 (VPHISRQRL) [compound 929], the Restriction result is “CD8”. For the substance 932 (TLKEILVTY) [compound 932], the Restriction result is “CD8”. 933 (FVENPDILRV) [compound 933]: the Restriction entry is on record as “CD8”. In the case of 934 (VENPDILRV) [compound 934], the Restriction result is “CD8”.

On to 935 (VENPDILRVY) [compound 935], for which the Restriction entry is on record as “CD8”.

For 936 (VRQALLKTV) [compound 936], the Restriction entry is given as “CD8”. In the case of 937 (DAMRNAGIV) [compound 937], the Restriction result is recorded as “CD8”. In the case of 938 (SLLMPILTL) [compound 938], the Restriction result is recorded as “CD8”. As for 941 (HVDTDLTKPY) [compound 941], the Restriction result is given as “CD8”. As to 942 (KPYIKWDLL) [compound 942], the Restriction entry is “CD8”. Turning to 946 (STVFPPTSF) [compound 946], the Restriction result was “CD8”.

Turning to 947 (FPPTSFGPL) [compound 947], the Restriction result is “CD8”. Take 948 (TSFGPLVRK) [compound 948]: the Restriction result is “CD8”.

In the case of 949 (SFGPLVRKI) [compound 949], the Restriction entry was “CD8”. For 950 (KIFVDGVPFV) [compound 950], the Restriction result is on record as “CD8”. With 952 (FVVSTGYHFR) [compound 952], the Restriction entry was “CD8”. Regarding 953 (VVSTGYHFR) [compound 953], the Restriction entry is recorded as “CD8”. For the substance 954 (NLHSSRLSF) [compound 954], the Restriction result was “CD8”.

For 955 (QTVKPGNFNK) [compound 955], the Restriction entry was “CD8”.

For the substance 957 (FAVSKGFFK) [compound 957], the Restriction entry is “CD8”. On to 958 (AAISDYDYYR) [compound 958], for which the Restriction result was “CD8”. Consider 959 (AAISDYDYY) [compound 959], for which the Restriction result is on record as “CD8”.

960 (AISDYDYYR) [compound 960]: the Restriction result was “CD8”. In the case of 962 (YRYNLPTMC) [compound 962], the Restriction result is recorded as “CD8”.

In the case of 963 (YRYNLPTM) [compound 963], the Restriction result is on record as “CD8”. For 965 (FVVEVVDKY) [compound 965], the Restriction result is given as “CD8”. Turning to 967 (KSAGFPFNKW) [compound 967], the Restriction entry is “CD8”. Take 968 (KSAGFPFNK) [compound 968]: the Restriction result is given as “CD8”.

For 969 (ARLYYDSMSY) [compound 969], the Restriction result is recorded as “CD8”.

With 971 (FAYTKRNVI) [compound 971], the Restriction entry is recorded as “CD8”. On to 972 (NVIPTITQM) [compound 972], for which the Restriction result is “CD8”.

973 (IPTITQMNL) [compound 973]: the Restriction result was “CD8”. In the case of 974 (TITQMNLKY) [compound 974], the Restriction result is on record as “CD8”. With 975 (YAISAKNRAR) [compound 975], the Restriction result is reported as “CD8”. Take 976 (SAKNRARTV) [compound 976]: the Restriction entry is listed as “CD8”. Regarding 977 (SICSTMTNR) [compound 977], the Restriction result is listed as “CD8”. Regarding 978 (IAATRGATV) [compound 978], the Restriction entry is “CD8”. For the substance 979 (ATVVIGTSK) [compound 979], the Restriction result was “CD8”.

For the substance 981 (VENPHLMGWD) [compound 981], the Restriction result is recorded as “CD8”.

Regarding 982 (MPNMLRIMASL) [compound 982], the Restriction entry is on record as “CD8”. Take 983 (NMLRIMASL) [compound 983]: the Restriction entry is reported as “CD8”. Turning to 984 (MLRIMASL) [compound 984], the Restriction entry was “CD8”. As to 985 (LRIMASLVL) [compound 985], the Restriction result is “CD8”. For the substance 986 (IMASLVLAR) [compound 986], the Restriction entry is given as “CD8”. As for 987 (MASLVLARK) [compound 987], the Restriction result is listed as “CD8”. Take 988 (RLANECAQV) [compound 988]: the Restriction result is listed as “CD8”. In the case of 990 (TSSGDATTAY) [compound 990], the Restriction result is recorded as “CD8”. With 991 (VRNLQHRLY) [compound 991], the Restriction result was “CD8”. Consider 993 (FVNEFYAYLR) [compound 993], for which the Restriction entry is “CD8”. Turning to 994 (FVNEFYAYL) [compound 994], the Restriction entry is “CD8”.

Take 996 (YAYLRKHF) [compound 996]: the Restriction entry is given as “CD8”. In the case of 997 (LRKHFSMMI) [compound 997], the Restriction entry is recorded as “CD8”. 999 (LYYQNNVFM) [compound 999]: the Restriction entry is recorded as “CD8”. As to 1001 (LVKQGDDYVY) [compound 1001], the Restriction result is reported as “CD8”.

Regarding 1002 (KQGDDYVYL) [compound 1002], the Restriction entry is reported as “CD8”.

As for 1004 (VYLPYPDPSRI) [compound 1004], the Restriction result is listed as “CD8”.
